Results: patent publication US9326955B2, “Combination pharmaceuticals and methods thereof using proteinacious channels as treatments for medical conditions” (Loyola University Chicago, priority 2008, dated 2016)
“Also recorded” adds a separate entry of the source. Read-outs that look alike come from different tables or passages of the source.

Columns and labels:
[1] = compared with celecoxib; cited from earlier work
[2] = biological target: vascular L-type Ca^2+ channels (Homo sapiens, UniProt Q13936); settings: vascular smooth muscle cells
Procedure: The activities were measured for two types of ion channels that are perhaps the most important in determining the contractile state of vascular smooth muscle cells: potassium (K^+) channels, which determine the resting membrane voltage, and voltage-sensitive calcium (Ca^2+) channels (VSCC), the activation of which allows Ca^2+ influx and vasoconstriction. […] The actions of these drugs can be assessed at the level of isolated arterial myocytes and intact pressurized arteries.

KCNQ channels = test: Patch-clamp of KCNQ currents in rat airway myocytes (ASMCs); type: cell-based
Procedure: An investigation relating to these aspects of the invention was conducted to determine whether KCNQ (Kv7) K^+ channels are expressed and functional in rat airway myocytes. To accomplish this, a combination of real time polymerase chain reaction (RT-PCR) and patch-clamp electrophysiology was used. Isolation of rat ASMCs from bronchial strips for the patch-clamp electrophysiology as well as RNA isolation from rat trachea for the RT-PCR were performed using methods as described in Brueggemann et al., “KCNQ (Kv7) potassium channel activators as bronchodilators: combination with a β2-adrenergic agonist enhances relaxation of rat airways,” Am J Physiol Lung Cell Mol Physiol (in press), incorporated herein by reference.
Therefore K^+ currents in enzymatically dispersed rat airway myocytes were measured using patch-clamp electrophysiology.
After 10 minutes of MeCh treatment, the time course recording was interrupted for 10 minutes for measurement of steady-state I-V relationship (time break indicated by vertical gray lines). Then, after an additional one minute recording at −20 mV holding voltage, retigabine (10 μM) was applied in the presence of MeCh for 5 minutes. The time course recording was interrupted again for ten minutes for measurement of steady-state I-V relationship and, after an additional one minute time course recording, XE991 (1 μM) was applied in the presence of MeCh and retigabine for ten minutes.
The investigation examined whether the bronchorelaxant effects of long-acting β2-adrenergic receptor agonist, formoterol, were mediated via activation of KCNQ channels in rat airway myocytes. […] The time course recording was interrupted for 10 minutes for measurement of steady-state I-V relationship (time break indicated by vertical gray lines). After an additional 5 minutes recording, retigabine (10 μM) was applied in the continued presence of formoterol. The time course recording was interrupted again for 10 minutes for recording of steady-state I-V curves, and, after an additional 5 minutes recording, XE991 (1 μM) was applied in the presence of retigabine.

[3] = tested on: rat bronchioles in precision-cut lung slices (PCLS); test: Airway constriction/relaxation in rat precision-cut lung slices (PCLS); settings: for bronchorelaxant action when XE991 is included: with XE991 10 μM
Procedure: Another investigation was performed to investigate the ability of KCNQ channel activators to attenuate MeCh-induced concentration-dependent constriction of rat bronchioles in precision-cut lung slices (PCLS). The PCLS were prepared using methods described by Brueggemann et al., “KCNQ (Kv7) potassium channel activators as bronchodilators: combination with a β2-adrenergic agonist enhances relaxation of rat airways,” Am J Physiol Lung Cell Mol Physiol (in press). PCLS were superfused with increasing concentrations of MeCh in the range from 100 nM to 1 μM. Each concentration was applied for thirty minutes, followed by a forty-five minute washout prior to application of the next MeCh concentration (FIG. 12A,B). […] Percent of airway constriction, relative to the cross-sectional area measured before the initial MeCh treatment, was calculated for each MeCh concentration and plotted against concentration of MeCh.
Bronchorelaxant effects were further assessed by measuring the extent of bronchoconstriction when MeCh was applied in the absence or presence of different structurally unrelated KCNQ channel activators (or vehicle).
FIG. 13C is a representative time course of changes in lumenal area of a small airway in rat PCLS on application of 230 nM MeCh (thirty minutes) followed by application of 230 nM MeCh in the presence of 10 nM formoterol (FF, thirty minutes). Dashed vertical lines marked “max” and “final” indicate 1 minute time intervals where the maximum or final relaxation was measured relative to the MeCh-induced constriction (measured during the last minute of MeCh alone). FIG. 13D is a representative time course of changes in lumenal area of a small airway treated as in panel C, except that 10 μM retigabine was included with the formoterol treatment (“FF+R,” thirty minutes).
The amount of desensitization for each concentration of formoterol in the absence and presence of 10 μM retigabine was estimated by subtraction of final relaxation (after thirty-minute treatment) from maximal relaxation.
To further investigate the desensitization to formoterol in rat PCLS, formoterol (10 nM) was applied twice, at a 90 minute interval, to airways constricted repetitively with 230 nM MeCh.

vascular Kv7 channels = test: Electrophysiology of Kv7 currents in vascular smooth muscle cells; type: cell-based, rat and human; settings: for effect on vascular Kv7 channels: vascular smooth muscle cells
Procedure: The scope of the present invention further encompasses the tools used to measure vascular Kv7 channel activities and/or functional contributions of these channels in vascular smooth muscle cells. […] For example, flupirtine is a known Kv7 channel activator used to treat pain; plasma concentrations achieved clinically can be as high as about 12 μM with a 100 mg dose (Abrams et al., “Pharmacokinetics of flupirtine in elderly volunteers and in patients with moderate renal impairment,” Postgraduate Medical Journal, 64: 361-363 (1988)) and doses up to about 600 mg are routinely given to treat chronic pain. […] Further indications to support such predictions may be obtained by measuring the effects of drugs on constriction/dilation of pressurized arteries.

human PCLS = test: Airway relaxation in human PCLS from an asthmatic lung; settings: 30 pM alone, thirty-minute treatment (H1+F)
Source text: FIG. 15A is a representative recording of airway area from a PCLS derived from an asthmatic human lung.

Kv7 channels = test: Perforated patch clamp of Kv7 currents in freshly isolated guinea pig ASMCs; type: cell-based
Procedure: Another investigation relating to this aspect of the invention was directed to investigating Kv7 currents in freshly dissociated guinea pig ASMCs. […] 197-218 (1992), ASMCs were isolated from guinea pig bronchioles by enzymatic digestion and whole cell perforated patch clamp electrophysiology was used to record Kv7 currents. Kv7 currents were recorded in isolation from other ionic currents by including 100 μM gadolinium chloride in the external solution and applying relatively long (about five second) voltage steps, during which many other classes of channels inactivate.

Sprague-Dawley rats = test: Mean arterial pressure and mesenteric vascular resistance in anesthetized instrumented rats; type: in vivo, rat
[4] = randomized clinical trials / clinical studies; cited from earlier work
[5] = tested on: ovalbumin-sensitized guinea pigs; test: Aerosolized ovalbumin challenge with inhaled retigabine in guinea pigs; settings: thirty-minute exposure with ovalbumin, doses up to 1 mM
Procedure: To assess the feasibility of inhalational therapy with a Kv7 channel activator, an investigation was conducted to assess the ability of retigabine to exert a therapeutic anti-bronchospastic benefit in vivo. […] This model involves a series of three intraperitoneal injections of ovalbumin (OA) or saline (as control) over a one week period, followed by a two-week sensitization period, and finally challenge with aerosolized ovalbumin.
In the investigation, two saline-control and two ovalbumin-sensitized animals were exposed to aerosolized ovalbumin on three consecutive days, but in this case the ovalbumin treatment was administered with varying doses of retigabine on consecutive days.

[6] = 100 mg dose; cited from earlier work
[7] = 10 nM, 230 nM MeCh (FIG. 14A,C)
[8] = 10 nM, 90 minute interval (FIG. 14A,C)
[9] = formoterol 10 nM alone (FIG. 14B,D)

Sequence of vascular L-type Ca^2+ channels (Q13936 whole entry): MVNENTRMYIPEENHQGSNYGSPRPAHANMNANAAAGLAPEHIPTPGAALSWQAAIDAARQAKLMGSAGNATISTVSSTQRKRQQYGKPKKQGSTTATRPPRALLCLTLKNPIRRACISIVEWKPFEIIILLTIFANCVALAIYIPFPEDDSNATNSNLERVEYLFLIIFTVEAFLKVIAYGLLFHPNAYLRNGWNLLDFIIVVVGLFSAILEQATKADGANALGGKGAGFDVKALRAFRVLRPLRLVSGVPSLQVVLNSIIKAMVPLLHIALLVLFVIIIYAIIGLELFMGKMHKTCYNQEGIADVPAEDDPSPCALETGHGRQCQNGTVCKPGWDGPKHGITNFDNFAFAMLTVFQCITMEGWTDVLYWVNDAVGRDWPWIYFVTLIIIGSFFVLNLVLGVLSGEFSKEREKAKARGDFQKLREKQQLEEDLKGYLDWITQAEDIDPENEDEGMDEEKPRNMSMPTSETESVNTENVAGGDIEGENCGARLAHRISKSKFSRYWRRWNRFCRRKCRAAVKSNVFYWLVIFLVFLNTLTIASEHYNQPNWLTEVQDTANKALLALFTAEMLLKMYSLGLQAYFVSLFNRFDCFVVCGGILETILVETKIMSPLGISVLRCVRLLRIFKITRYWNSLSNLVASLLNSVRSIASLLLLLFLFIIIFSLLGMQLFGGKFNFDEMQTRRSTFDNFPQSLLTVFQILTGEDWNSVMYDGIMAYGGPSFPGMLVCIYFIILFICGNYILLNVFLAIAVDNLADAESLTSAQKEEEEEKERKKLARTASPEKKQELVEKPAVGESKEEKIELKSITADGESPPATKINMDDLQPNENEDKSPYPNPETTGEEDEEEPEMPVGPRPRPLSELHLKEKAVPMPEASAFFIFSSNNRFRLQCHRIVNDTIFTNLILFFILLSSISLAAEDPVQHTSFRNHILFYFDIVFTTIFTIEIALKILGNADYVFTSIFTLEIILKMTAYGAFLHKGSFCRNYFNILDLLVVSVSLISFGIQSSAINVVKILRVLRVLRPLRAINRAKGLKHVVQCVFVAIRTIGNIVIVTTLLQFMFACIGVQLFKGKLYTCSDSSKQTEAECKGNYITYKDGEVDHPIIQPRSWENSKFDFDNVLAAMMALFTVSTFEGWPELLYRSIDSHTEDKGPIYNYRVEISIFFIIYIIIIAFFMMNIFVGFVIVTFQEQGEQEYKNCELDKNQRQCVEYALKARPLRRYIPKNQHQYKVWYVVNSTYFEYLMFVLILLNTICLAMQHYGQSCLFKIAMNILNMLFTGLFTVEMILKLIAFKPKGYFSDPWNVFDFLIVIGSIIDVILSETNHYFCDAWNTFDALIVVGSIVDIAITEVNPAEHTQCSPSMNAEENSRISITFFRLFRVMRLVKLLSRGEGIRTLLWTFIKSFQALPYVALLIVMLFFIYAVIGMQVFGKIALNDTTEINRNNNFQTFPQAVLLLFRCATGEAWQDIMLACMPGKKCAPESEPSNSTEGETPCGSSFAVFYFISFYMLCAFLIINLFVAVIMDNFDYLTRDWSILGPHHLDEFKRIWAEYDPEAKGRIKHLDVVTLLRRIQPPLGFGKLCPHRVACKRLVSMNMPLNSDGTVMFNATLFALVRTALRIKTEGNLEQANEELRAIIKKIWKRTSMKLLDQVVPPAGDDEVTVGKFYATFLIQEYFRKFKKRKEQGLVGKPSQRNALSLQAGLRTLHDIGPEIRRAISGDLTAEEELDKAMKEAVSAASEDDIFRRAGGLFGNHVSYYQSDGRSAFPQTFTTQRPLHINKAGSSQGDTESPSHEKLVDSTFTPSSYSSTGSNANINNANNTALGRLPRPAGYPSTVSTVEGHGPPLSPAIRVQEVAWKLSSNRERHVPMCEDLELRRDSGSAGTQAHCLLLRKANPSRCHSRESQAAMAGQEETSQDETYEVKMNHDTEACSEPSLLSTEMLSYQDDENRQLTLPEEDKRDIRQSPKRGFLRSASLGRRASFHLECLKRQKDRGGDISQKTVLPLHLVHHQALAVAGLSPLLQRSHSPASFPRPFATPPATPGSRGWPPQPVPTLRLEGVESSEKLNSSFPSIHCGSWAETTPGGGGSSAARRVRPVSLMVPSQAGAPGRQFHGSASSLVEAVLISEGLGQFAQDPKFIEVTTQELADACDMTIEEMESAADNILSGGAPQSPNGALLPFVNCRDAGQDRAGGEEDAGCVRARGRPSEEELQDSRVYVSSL
Sequence of vascular L-type Ca^2+ channels (P54284 whole entry partner): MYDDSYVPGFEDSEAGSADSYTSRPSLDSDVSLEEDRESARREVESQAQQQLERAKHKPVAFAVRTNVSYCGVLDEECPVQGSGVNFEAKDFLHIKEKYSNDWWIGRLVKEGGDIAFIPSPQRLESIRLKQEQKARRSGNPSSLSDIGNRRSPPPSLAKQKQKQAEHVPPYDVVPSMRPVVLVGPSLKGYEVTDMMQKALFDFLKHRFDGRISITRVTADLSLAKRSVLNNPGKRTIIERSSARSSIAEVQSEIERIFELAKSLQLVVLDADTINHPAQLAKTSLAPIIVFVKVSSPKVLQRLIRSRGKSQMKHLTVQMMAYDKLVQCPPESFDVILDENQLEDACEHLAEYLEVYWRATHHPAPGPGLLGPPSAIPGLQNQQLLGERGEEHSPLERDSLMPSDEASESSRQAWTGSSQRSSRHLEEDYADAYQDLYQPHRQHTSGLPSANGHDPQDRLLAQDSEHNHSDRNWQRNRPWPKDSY
Sequence of vascular L-type Ca^2+ channels (P54289 25-956 partner limits assumed): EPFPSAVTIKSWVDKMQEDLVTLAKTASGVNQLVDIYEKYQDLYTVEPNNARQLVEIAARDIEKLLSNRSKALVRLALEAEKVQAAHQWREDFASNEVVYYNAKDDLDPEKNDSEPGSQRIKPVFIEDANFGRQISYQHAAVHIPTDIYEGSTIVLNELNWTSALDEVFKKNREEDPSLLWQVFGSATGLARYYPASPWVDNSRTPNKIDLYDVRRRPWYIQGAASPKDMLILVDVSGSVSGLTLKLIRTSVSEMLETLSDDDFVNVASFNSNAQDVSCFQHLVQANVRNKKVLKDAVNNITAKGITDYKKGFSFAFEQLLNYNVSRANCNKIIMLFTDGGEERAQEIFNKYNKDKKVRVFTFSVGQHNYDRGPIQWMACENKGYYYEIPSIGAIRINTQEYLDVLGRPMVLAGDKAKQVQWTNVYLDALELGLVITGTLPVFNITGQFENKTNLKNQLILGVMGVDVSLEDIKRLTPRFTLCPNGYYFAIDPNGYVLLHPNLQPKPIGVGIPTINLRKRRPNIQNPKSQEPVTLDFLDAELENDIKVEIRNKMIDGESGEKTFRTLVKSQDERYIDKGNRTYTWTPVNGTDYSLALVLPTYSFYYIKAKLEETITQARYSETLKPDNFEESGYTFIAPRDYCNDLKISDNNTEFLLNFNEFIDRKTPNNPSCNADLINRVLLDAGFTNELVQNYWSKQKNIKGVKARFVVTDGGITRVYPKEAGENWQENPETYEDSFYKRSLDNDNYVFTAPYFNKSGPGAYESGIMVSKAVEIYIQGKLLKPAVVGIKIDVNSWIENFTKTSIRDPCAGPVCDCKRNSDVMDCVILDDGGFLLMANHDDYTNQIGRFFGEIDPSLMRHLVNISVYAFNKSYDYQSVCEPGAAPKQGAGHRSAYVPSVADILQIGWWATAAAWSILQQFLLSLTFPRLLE
Sequence of vascular L-type Ca^2+ channels (P54289 957-1103 partner limits assumed): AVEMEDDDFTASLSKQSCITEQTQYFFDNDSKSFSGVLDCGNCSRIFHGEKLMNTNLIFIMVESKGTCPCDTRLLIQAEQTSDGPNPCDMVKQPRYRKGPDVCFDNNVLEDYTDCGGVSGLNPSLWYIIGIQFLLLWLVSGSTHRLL

Compound: Cc1ccc(C)c(-c2cc(C(F)(F)F)nn2-c2ccc(S(N)(=O)=O)cc2)c1 [2,5-dimethyl-celecoxib]
- anti-cancer activity [1]: stronger anti-cancer activity than celecoxib itself
- effect on vascular L-type Ca^2+ channels [2]: inhibitor
- effect on KCNQ currents at −20 mV holding voltage (KCNQ channels; rat ASMCs, 10 μM): effective as an activator
- reduction of MeCh-induced airway constriction ([3]; 10 μM, 230 nM MeCh): 23%
- bronchorelaxant action when XE991 is included [3]: not significantly reduced
- effect on vascular Kv7 channels (vascular Kv7 channels): potent activator

Compound: COc1ccc(C[C@@H](C)NC[C@H](O)c2ccc(O)c(NC=O)c2)cc1.COc1ccc(C[C@@H](C)NC[C@H](O)c2ccc(O)c(NC=O)c2)cc1.O=C(O)/C=C/C(=O)O [formoterol, formoterol fumarate]
- relaxation of histamine-constricted asthmatic human airway (human PCLS): 18%
- effect on KCNQ currents at −20 mV holding voltage (KCNQ channels; rat ASMCs, 10 nM): did not enhance KCNQ currents
- final relaxation after thirty minutes, first application [3, 7]: 46±14%
- peak relaxation, first application [3, 7]: 68±10%
- final relaxation, second application [3, 8]: 32±6%
- peak relaxation, second application [3, 8]: 48±8%
- maximum relaxation of airways constricted with MeCh ([3]; at 1 μM, 230 nM MeCh): 72±5%
- time course of relaxation response ([3]; concentrations greater than or equal to 10 nM): noticeable time-dependent decline in the relaxation response
- final relaxation, acute exposure of the same slices [3, 9]: 34±6%
- peak relaxation, acute exposure of the same slices [3, 9]: 59±4%

Compound: O=C1N(c2ccccc2)c2ccccc2C1(Cc1ccncc1)Cc1ccncc1 [linopirdine]
- effect on ASMC Kv7 currents (Kv7 channels; celecoxib 10 μM at −20 mV): complete suppression
- mean arterial pressure (MAP) (Sprague-Dawley rats): opposite effects
- mesenteric vascular resistance (MVR) (Sprague-Dawley rats): opposite effects

Compound: Cc1ccc(-c2cc(C(F)(F)F)nn2-c2ccc(S(N)(=O)=O)cc2)cc1 [celecoxib]
- risk of cardiovascular (CV) events [4]: failed to demonstrate an increased CV risk

Compound: CC(=O)OC(C)C[N+](C)(C)C (stereo not shown) [methacholine]
- effect on ASMC Kv7 currents (Kv7 channels; 100 nM, −20 mV): completely suppressed
- reduction of KCNQ currents at −20 mV (KCNQ channels; rat ASMCs, 230 nM, n=7): 55.1±6.2%
- EC50 ([3]; rat PCLS, 100 nM to 1 μM, Hill fit, n=5, read-out: EC50 of airway constriction): 248 ± 49 nM
- Hill coefficient of airway constriction ([3]; rat PCLS, n=5): 1.6±0.2
- maximal constriction ([3]; rat PCLS, n=5): 81±7%

Compound: CCOC(=O)Nc1ccc(NCc2ccc(F)cc2)cc1N [retigabine]
- effect on saline control animals [5]: no apparent effect
- reduction of MeCh-induced airway constriction ([3]; 10 μM, 230 nM MeCh): about 31%
- relaxation when applied alone ([3]; 10 μM, 230 nM MeCh): 45.7±4.9%
- EC50 ([3]; Rattus norvegicus, read-out: EC50 of relaxation of pre-constricted airways): 3600 ± 300 nM
- maximum relaxation ([3]; pre-constricted thirty minutes with 230 nM MeCh): 61±9%

Compound: CC(C)NCC(O)c1ccc(O)c(O)c1 (stereo not shown) [isoproterenol]
- effect on KCNQ currents at −20 mV holding voltage (KCNQ channels; rat ASMCs, 100 nM): ineffective in enhancement of KCNQ currents

Compound: zinc pyrithione
- effect on KCNQ currents at −20 mV holding voltage (KCNQ channels; rat ASMCs, 100 nM): enhanced
- threshold of KCNQ channel activation (KCNQ channels; voltage step protocol, retigabine 10 μM, ZnPyr 100 nM): shifted the threshold of channel activation to more negative voltages
- reduction of MeCh-induced airway constriction ([3]; 1 μM, 230 nM MeCh, relative to vehicle): 21%
- bronchorelaxant action when XE991 is included [3]: suppressed or prevented

Compound: CCOC(=O)Nc1ccc(NCc2ccc(F)cc2)nc1N [flupirtine]
- plasma concentration achieved clinically [6]: about 12 μM
- increase of vascular Kv7 current (vascular Kv7 channels; 10 μM): 100%

Compound: NCCc1c[nH]cn1 [histamine]
- effect on ASMC Kv7 currents (Kv7 channels; 30 μM): significantly suppressed

Compound: O=C(O)Cc1ccccc1Nc1c(Cl)cccc1Cl [diclofenac]
- risk of cardiovascular (CV) events [4]: significantly increased the risk of cardiovascular (CV) events
- effect on vascular Kv7 channels (vascular Kv7 channels): pronounced effects

Compound: CS(=O)(=O)c1ccc(C2=C(c3ccccc3)C(=O)OC2)cc1 [rofecoxib]
- risk of cardiovascular (CV) events [4]: significantly increased the risk of cardiovascular (CV) events
- effect on vascular L-type Ca^2+ channels [2]: does not exhibit either effect
- effect on vascular Kv7 channels (vascular Kv7 channels): does not exhibit either effect

Compound: O=C1c2ccccc2C(Cc2ccncc2)(Cc2ccncc2)c2ccccc21 [XE991]
- effect on ASMC Kv7 currents (Kv7 channels; celecoxib 10 μM at −20 mV): complete suppression
- effect on KCNQ currents in the presence of retigabine (KCNQ channels; 1 μM, subsequent application after retigabine (with MeCh or formoterol)): completely abolished; also recorded: effectively abolished
- effect on KCNQ currents at −20 mV holding voltage (KCNQ channels; rat ASMCs, 10 μM): inhibited
